Experimental data: patent US10323063B2, “Advanced macromolecule transduction domain (aMTD) sequences for improvement of cell-permeability, polynucleotides encoding the same, method to identify the unique features of aMTDs comprising the same, method to develop the aMTD sequences comprising the same” (CELLIVERY THERAPEUTICS, INC., priority 2014, dated 2019)

Tested on: RAW 264.7 cells
Assay: Quantitative cell-permeability of FITC-labeled aMTD- or rPeptide-fused CRA recombinant proteins by flow cytometry
Format: cell-based
From the text: The aMTDs and rPeptides were fluorescently labeled and compared based on the critical factors for cell-permeability by using flow cytometry and confocal laser scanning microscopy (FIG. 5 to 8). The cellular uptake of the peptide-fused non-functional cargo recombinant proteins could quantitatively be evaluated in flow cytometry, while confocal laser scanning microscopy allows intracellular uptake to be assessed visually. The analysis included recombinant proteins fused to a negative control [rP38] that has opposite characteristics (hydrophilic and aromatic sequence: YYNQSTCGGQCY) to the aMTDs (hydrophobic and aliphatic sequences). Relative cell-permeability (relative fold) of aMTDs to the negative control was also analyzed (TABLE 39 and FIG. 9).
Geometric means of negative control (histidine-tagged rP38-fused CRA recombinant protein) subtracted by that of naked protein (histidine-tagged CRA protein) lacking any peptide (rP38 or aMTD) was standardized as relative fold of 1.
For quantitative cell-permeability, the aMTD- or rPeptide-fused recombinant proteins were conjugated to fluorescein isothiocyanate (FITC) according to the manufacturer's instructions (Sigma-Aldrich, St. Louis, Mo.). RAW 264.7 cells were treated with 10 μM FITC-labeled recombinant proteins for 1 hour at 37° C., washed three times with cold PBS, treated with 0.25% tripsin/EDTA (Sigma-Aldrich, St. Louis, Mo.) for 20 minutes at 37° C. to remove cell-surface bound proteins. Cell-permeability of these recombinant proteins were analyzed by flow cytometry (Guava, Millipore, Darmstadt, Germany) using the FlowJo cytometric analysis software (FIG. 5 to 6). The relative cell-permeability of aMTDs were measured and compared with the negative control (rP38) and reference hydrophobic CPPs (MTM12 and MTD85) (TABLE 47).

[1] = cell-permeability of aMTD-fused CRA recombinant protein relative to negative control (A: rP38)
[2] = cell-permeability of aMTD-fused CRA recombinant protein relative to reference CPP (B: MTM12)
[3] = cell-permeability of aMTD-fused CRA recombinant protein relative to reference CPP (C: MTD85)
[4] = cell-permeability of aMTD-fused CRA recombinant protein relative to negative control rP38 (A type)
[5] = cell-permeability relative to reference CPP MTD85 (C type)
[6] = cell-permeability relative to reference CPP MTM12 (B type)

What does the source list for “503 (AAIIIVLPAALP; Advanced Macromolecule Transduction Domain (aMTD) Sequences for Improvement of Cell-Permeability) [compound 503]”?
Relative Ratio (Fold) A [1]: 17.6 Fold; Relative Ratio (Fold) B [2]: 11.8 Fold; Relative Ratio (Fold) C [3]: 5.9 Fold

What does the source list for “165 (ALAVPVALAIVP; Advanced Macromolecule Transduction Domain (aMTD) Sequences for Improvement of Cell-Permeability) [compound 165]”?
Relative Ratio (Fold) A [1]: 19.8 Fold; Relative Ratio (Fold) B [2]: 13.2 Fold; Relative Ratio (Fold) C [3]: 6.7 Fold

How did the “Relative Ratio (Fold) C” value [3] turn out when “501 (VIVALAVPALAP; Advanced Macromolecule Transduction Domain (aMTD) Sequences for Improvement of Cell-Permeability) [compound 501]” was run?
Its value is 7.3 Fold.

“205 (ALALVPAIAALP; Advanced Macromolecule Transduction Domain (aMTD) Sequences for Improvement of Cell-Permeability) [compound 205]” was tested. Which “Relative Ratio (Fold) A” value [4] did it give?
Its value is 2.6 Fold.

What about the “Relative Ratio (Fold) C” value [5] of the same substance?
Its value is 0.9 Fold.

What about the “Relative Ratio (Fold) B” value [6] of the same substance?
The value was 1.7 Fold.

With “144 (VLAIVPAVALAP; Advanced Macromolecule Transduction Domain (aMTD) Sequences for Improvement of Cell-Permeability) [compound 144]” as the substance, how does the “Relative Ratio (Fold) A” value [4] read?
Its value is 8.8 Fold.

And the “Relative Ratio (Fold) C” value [5]?
Its value is 3.0 Fold.

What about the “Relative Ratio (Fold) B” value [6] of the same substance?
The value was 5.9 Fold.

“102 (LALAPAALALLP; Advanced Macromolecule Transduction Domain (aMTD) Sequences for Improvement of Cell-Permeability) [compound 102]” was tested. Which “Relative Ratio (Fold) A” value [4] did it give?
Its value is 1.4 Fold.

What about the “Relative Ratio (Fold) C” value [5] of the same substance?
The value was 0.5 Fold.

What about the “Relative Ratio (Fold) B” value [6] of the same substance?
The value was 0.9 Fold.

What does the source list for “23 (VVLVLPAAAAVP; Advanced Macromolecule Transduction Domain (aMTD) Sequences for Improvement of Cell-Permeability) [compound 23]”?
Relative Ratio (Fold) A [4]: 4.0 Fold; Relative Ratio (Fold) C [5]: 1.3 Fold; Relative Ratio (Fold) B [6]: 2.6 Fold

What does the source list for “123 (AAIIVPAALLAP; Advanced Macromolecule Transduction Domain (aMTD) Sequences for Improvement of Cell-Permeability) [compound 123]”?
Relative Ratio (Fold) A [4]: 2.9 Fold; Relative Ratio (Fold) C [5]: 1.0 Fold; Relative Ratio (Fold) B [6]: 2.0 Fold

With “103 (ALIAAPILALAP; Advanced Macromolecule Transduction Domain (aMTD) Sequences for Improvement of Cell-Permeability) [compound 103]” as the substance, how does the “Relative Ratio (Fold) A” value [4] read?
The value was 2.1 Fold.

And the “Relative Ratio (Fold) C” value [5]?
The value was 0.7 Fold.

And the “Relative Ratio (Fold) B” value [6]?
Its value is 1.4 Fold.

Which “Relative Ratio (Fold) A” value [1] does the source give for “625 (ILAAAAAPLIVP; Advanced Macromolecule Transduction Domain (aMTD) Sequences for Improvement of Cell-Permeability) [compound 625]” here?
Its value is 20.9 Fold.

For “543 (LLAALIAPAALP; Advanced Macromolecule Transduction Domain (aMTD) Sequences for Improvement of Cell-Permeability) [compound 543]”, which “Relative Ratio (Fold) B” value [6] is on record?
The value was 7.8 Fold.

With 57 (QNNCNTSSQGGG) [compound 57] as the substance, how does the “Relative Ratio to aMTD AVE” value (cell-permeability of rPeptide relative to the average of 240 aMTDs) read?
Its value is 0.06.

“705 (IVAVALLPALAP; Advanced Macromolecule Transduction Domain (aMTD) Sequences for Improvement of Cell-Permeability) [compound 705]” was tested. Which “Relative Ratio (Fold) A” value [1] did it give?
Its value is 28.6 Fold.

For “484 (LAVVLAAPAIVP; Advanced Macromolecule Transduction Domain (aMTD) Sequences for Improvement of Cell-Permeability) [compound 484]”, which “Relative Ratio (Fold) A” value [1] is on record?
The value was 15.6 Fold.

“877 (VAIIAVPAVVAP; Advanced Macromolecule Transduction Domain (aMTD) Sequences for Improvement of Cell-Permeability) [compound 877]” was tested. Which “Relative Ratio (Fold) A” value [1] did it give?
Its value is 14.0 Fold.

And the “Relative Ratio (Fold) B” value [2]?
The value was 9.4 Fold.

What about the “Relative Ratio (Fold) C” value [3] of the same substance?
Its value is 4.7 Fold.

For “224 (ILAAVPIALAAP; Advanced Macromolecule Transduction Domain (aMTD) Sequences for Improvement of Cell-Permeability) [compound 224]”, which “Relative Ratio (Fold) A” value [1] is on record?
The value was 15.8 Fold.

What about the “Relative Ratio (Fold) B” value [2] of the same substance?
Its value is 10.6 Fold.

And the “Relative Ratio (Fold) C” value [3]?
Its value is 5.3 Fold.

How did the “Relative Ratio (Fold) B” value [2] turn out when “442 (ALAALVPAVLVP; Advanced Macromolecule Transduction Domain (aMTD) Sequences for Improvement of Cell-Permeability) [compound 442]” was run?
The value was 13.6 Fold.

Which “Relative Ratio (Fold) A” value [4] does the source give for “101 (LVALAPVAAVLP; Advanced Macromolecule Transduction Domain (aMTD) Sequences for Improvement of Cell-Permeability) [compound 101]” here?
Its value is 4.5 Fold.

And the “Relative Ratio (Fold) C” value [5]?
The value was 1.5 Fold.

What about the “Relative Ratio (Fold) B” value [6] of the same substance?
Its value is 3.0 Fold.

Which results are given for “42 (VAALPVVAVVAP; Advanced Macromolecule Transduction Domain (aMTD) Sequences for Improvement of Cell-Permeability) [compound 42]”?
Relative Ratio (Fold) A [4]: 2.5 Fold; Relative Ratio (Fold) C [5]: 0.8 Fold; Relative Ratio (Fold) B [6]: 1.7 Fold

“808 (LVVLAAAPLAVP; Advanced Macromolecule Transduction Domain (aMTD) Sequences for Improvement of Cell-Permeability) [compound 808]” was tested. Which “Relative Ratio (Fold) A” value [4] did it give?
Its value is 11.5 Fold.

What about the “Relative Ratio (Fold) C” value [5] of the same substance?
The value was 3.9 Fold.

What about the “Relative Ratio (Fold) B” value [6] of the same substance?
The value was 7.6 Fold.

“163 (LALVLPAALAAP; Advanced Macromolecule Transduction Domain (aMTD) Sequences for Improvement of Cell-Permeability) [compound 163]” was tested. Which “Relative Ratio (Fold) A” value [4] did it give?
The value was 4.1 Fold.

What about the “Relative Ratio (Fold) C” value [5] of the same substance?
Its value is 1.4 Fold.

And the “Relative Ratio (Fold) B” value [6]?
The value was 2.4 Fold.

For “44 (ALAVPVALLVAP; Advanced Macromolecule Transduction Domain (aMTD) Sequences for Improvement of Cell-Permeability) [compound 44]”, which “Relative Ratio (Fold) A” value [4] is on record?
Its value is 1.6 Fold.

And the “Relative Ratio (Fold) C” value [5]?
Its value is 0.5 Fold.

And the “Relative Ratio (Fold) B” value [6]?
Its value is 1.1 Fold.

Which “Relative Ratio (Fold) B” value [2] does the source give for “285 (AIVLLPAAVVAP; Advanced Macromolecule Transduction Domain (aMTD) Sequences for Improvement of Cell-Permeability) [compound 285]” here?
Its value is 8.9 Fold.

What does the source list for “22 (AVVLVPVLAAAP; Advanced Macromolecule Transduction Domain (aMTD) Sequences for Improvement of Cell-Permeability) [compound 22]”?
Relative Ratio (Fold) A [4]: 3.1 Fold; Relative Ratio (Fold) C [5]: 1.1 Fold; Relative Ratio (Fold) B [6]: 2.1 Fold

Which results are given for “164 (LAAVLPALLAAP; Advanced Macromolecule Transduction Domain (aMTD) Sequences for Improvement of Cell-Permeability) [compound 164]”?
Relative Ratio (Fold) A [4]: 8.2 Fold; Relative Ratio (Fold) C [5]: 2.8 Fold; Relative Ratio (Fold) B [6]: 5.5 Fold

What does the source list for “747 (VALLAIAPALAP; Advanced Macromolecule Transduction Domain (aMTD) Sequences for Improvement of Cell-Permeability) [compound 747]”?
Relative Ratio (Fold) A [1]: 22.0 Fold; Relative Ratio (Fold) B [2]: 14.8 Fold; Relative Ratio (Fold) C [3]: 7.5 Fold

Which “Relative Ratio (Fold) C” value [3] does the source give for “826 (LVALAAPIIAVP; Advanced Macromolecule Transduction Domain (aMTD) Sequences for Improvement of Cell-Permeability) [compound 826]” here?
The value was 16.6 Fold.

How did the “Relative Ratio (Fold) C” value [3] turn out when “825 (IVAVIVAPAVAP; Advanced Macromolecule Transduction Domain (aMTD) Sequences for Improvement of Cell-Permeability) [compound 825]” was run?
Its value is 23.6 Fold.

How did the “Relative Ratio (Fold) A” value [4] turn out when “162 (AVVALPAALIVP; Advanced Macromolecule Transduction Domain (aMTD) Sequences for Improvement of Cell-Permeability) [compound 162]” was run?
The value was 8.2 Fold.

And the “Relative Ratio (Fold) C” value [5]?
The value was 2.8 Fold.

And the “Relative Ratio (Fold) B” value [6]?
The value was 5.5 Fold.

“63 (AALLVPALVAVP; Advanced Macromolecule Transduction Domain (aMTD) Sequences for Improvement of Cell-Permeability) [compound 63]” was tested. Which “Relative Ratio (Fold) A” value [4] did it give?
The value was 1.9 Fold.

And the “Relative Ratio (Fold) C” value [5]?
The value was 0.7 Fold.

What about the “Relative Ratio (Fold) B” value [6] of the same substance?
The value was 1.3 Fold.

What does the source list for “908 (VALALAPVVVAP; Advanced Macromolecule Transduction Domain (aMTD) Sequences for Improvement of Cell-Permeability) [compound 908]”?
Relative Ratio (Fold) A [1]: 150.6 Fold; Relative Ratio (Fold) B [2]: 100.8 Fold; Relative Ratio (Fold) C [3]: 50.9 Fold
